For orientation: IC50 means the midpoint of a concentration-inhibition curve. Lower therefore signals greater potency. Usually Kd stands for the constant that tells how readily two partners part at equilibrium. A lower Kd goes with higher affinity.

One test has as its target PIP4K2A (Homo sapiens (Human), UniProt P48426). Description: PIP4K2A inhibitory activity (Table 1). The format is biochemical.
A further test deals with PIP4K2C (Homo sapiens (Human), UniProt Q8TBX8). Description: KINOMEscan PIP5K2C (also known as PIP4K2C) Assay (Eurofins Discovery). The format is binding. How it is done:
(§1) The inhibitory activity of the compounds were evaluated using KINOMEscan® PIP5K2B (also known as PIP4K2B) and KINOMEscan® PIP5K2C (also known as PIP4k2C) Assays (Eurofins Discovery) following the manufacturer's standards.

The target in another test is PIP4K2B (Homo sapiens (Human), UniProt P78356). In words: KINOMEscan PIP5K2B (also known as PIP4K2B) Assay (Eurofins Discovery). The class given is binding. On the procedure: as §1

Where only a bound is given, the exact number is not on record here.

Chain of PIP4K2B (P78356 whole entry): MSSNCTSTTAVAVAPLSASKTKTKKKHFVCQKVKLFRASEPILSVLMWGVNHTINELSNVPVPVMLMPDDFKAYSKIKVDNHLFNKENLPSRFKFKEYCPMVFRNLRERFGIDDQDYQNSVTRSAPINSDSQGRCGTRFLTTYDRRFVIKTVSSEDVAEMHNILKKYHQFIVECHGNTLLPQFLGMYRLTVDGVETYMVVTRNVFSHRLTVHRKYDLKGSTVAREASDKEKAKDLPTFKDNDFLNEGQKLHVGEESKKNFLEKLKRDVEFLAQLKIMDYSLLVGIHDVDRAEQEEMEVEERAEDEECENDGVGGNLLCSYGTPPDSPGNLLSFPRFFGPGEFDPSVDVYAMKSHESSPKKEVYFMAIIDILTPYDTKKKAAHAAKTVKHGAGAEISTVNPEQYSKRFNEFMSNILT
Chain of PIP4K2C (Q8TBX8 whole entry): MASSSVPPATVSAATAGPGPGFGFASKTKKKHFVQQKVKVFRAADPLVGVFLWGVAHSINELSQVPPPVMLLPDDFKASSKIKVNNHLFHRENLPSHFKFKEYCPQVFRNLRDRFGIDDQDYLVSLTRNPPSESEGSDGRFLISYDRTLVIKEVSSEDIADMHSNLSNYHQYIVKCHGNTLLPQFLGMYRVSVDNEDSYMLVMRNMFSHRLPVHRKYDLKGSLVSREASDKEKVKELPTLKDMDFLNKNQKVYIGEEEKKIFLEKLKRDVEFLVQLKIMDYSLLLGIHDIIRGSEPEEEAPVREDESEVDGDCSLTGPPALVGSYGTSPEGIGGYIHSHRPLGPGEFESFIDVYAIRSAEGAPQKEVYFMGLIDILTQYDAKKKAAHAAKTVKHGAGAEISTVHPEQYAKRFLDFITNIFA
Chain of PIP4K2A (P48426 whole entry, species assumed): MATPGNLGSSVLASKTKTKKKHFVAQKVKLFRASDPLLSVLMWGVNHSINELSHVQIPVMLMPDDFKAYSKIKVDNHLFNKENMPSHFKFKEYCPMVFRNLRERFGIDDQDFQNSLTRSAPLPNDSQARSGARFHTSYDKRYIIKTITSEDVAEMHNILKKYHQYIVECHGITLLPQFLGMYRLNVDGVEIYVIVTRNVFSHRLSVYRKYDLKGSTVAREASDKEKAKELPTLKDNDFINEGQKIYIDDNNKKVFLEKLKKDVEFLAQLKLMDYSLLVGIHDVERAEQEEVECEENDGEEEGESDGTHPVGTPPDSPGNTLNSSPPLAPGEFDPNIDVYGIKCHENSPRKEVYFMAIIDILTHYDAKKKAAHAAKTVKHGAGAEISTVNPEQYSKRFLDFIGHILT

`Cc1cc(S(N)(=O)=O)ccc1Nc1ncc(Cl)c(-c2cccc(-c3ccccc3)c2)n1` [Compound 1] registered an IC50 at PIP4K2A of over 10000 nM. The Kd is 36 nM at PIP4K2C and over 10000 nM on PIP4K2B.

At PIP4K2A, `CC(=O)N(CC#N)S(=O)(=O)c1ccc(Nc2ncc(Cl)c(-c3cccc(-c4ccccc4)c3)n2)c(C)c1` [Compound 2] registered an IC50 of over 10000 nM. Besides, the Kd on PIP4K2C was 56 nM; on PIP4K2B, over 10000 nM.

Take `CC(=O)N(C)S(=O)(=O)c1ccc(Nc2ncc(Cl)c(-c3cccc(-c4ccccc4)c3)n2)c(C)c1` [Compound 3, N-((4-((4-([1,1′-biphenyl]-3-yl)-5-chloropyrimidin-2-yl)amino)-3-methylphenyl)sulfonyl)-N-methylacetamide]: the concentration for half-maximal inhibition (IC50) on PIP4K2A was 8760 nM. Moreover, the Kd at PIP4K2C was 29 nM; on PIP4K2B, over 10000 nM.

For `NS(=O)(=O)c1ccc(Nc2ncc(Cl)c(-c3cccc(-c4ccccc4)c3)n2)cc1` [Compound 4], the IC50 against PIP4K2A was over 10000 nM. The Kd was 64 nM on PIP4K2C and over 10000 nM on PIP4K2B.

`Cc1cc(C(N)=O)ccc1Nc1ncc(Cl)c(-c2cccc(-c3ccccc3)c2)n1` [Compound 5, 4-((4-([1,1′-biphenyl]-3-yl)-5-chloropyrimidin-2-yl)amino)-3-methylbenzamide] returned a Kd at PIP4K2C of 46 nM.

As to `Cc1cc(NS(C)(=O)=O)ccc1Nc1ncc(Cl)c(-c2cccc(-c3ccccc3)c2)n1` [Compound 6, N-(4-((4-([1,1′-biphenyl]-3-yl)-5-chloropyrimidin-2-yl)amino)-3-methylphenyl)methanesulfonamide], on PIP4K2C, the Kd came to 43 nM.

Turning to `Cc1ccc(NS(C)(=O)=O)cc1Nc1ncc(Cl)c(-c2cccc(-c3ccccc3)c2)n1` [Compound 7, N-(3-((4-([1,1′-biphenyl]-3-yl)-5-chloropyrimidin-2-yl)amino)-4-methylphenyl)methanesulfonamide], the Kd on PIP4K2C is 150 nM.

For the molecule `CC(=O)Nc1ccc(Nc2ncc(Cl)c(-c3cccc(-c4ccccc4)c3)n2)c(C)c1` [Compound 8, N-(4-((4-([1,1′-biphenyl]-3-yl)-5-chloropyrimidin-2-yl)amino)-3-methylphenyl)acetamide], the Kd on PIP4K2C stood at 270 nM.

Take `CC(=O)Nc1ccc(C)c(Nc2ncc(Cl)c(-c3cccc(-c4ccccc4)c3)n2)c1` [Compound 9, N-(3-((4-([1,1′-biphenyl]-3-yl)-5-chloropyrimidin-2-yl)amino)-4-methylphenyl)acetamide]: the figures for the Kd on PIP4K2C and at PIP4K2B were 1400 nM and over 10000 nM, respectively.

In turn, `Cc1ccc(C(N)=O)cc1Nc1ncc(Cl)c(-c2cccc(-c3ccccc3)c2)n1` [Compound 10, 3-((4-([1,1′-biphenyl]-3-yl)-5-chloropyrimidin-2-yl)amino)-4-methylbenzamide] came in with a Kd at PIP4K2C of 65 nM.

As for `CC(=O)Nc1cncc(Nc2ncc(Cl)c(-c3cccc(-c4ccccc4)c3)n2)c1` [Compound 11, N-(5-((4-([1,1′-biphenyl]-3-yl)-5-chloropyrimidin-2-yl)amino)pyridin-3-yl)acetamide], the dissociation constant Kd on PIP4K2C was 7.2 nM; at PIP4K2B, over 10000 nM.

Turning to `O=C(Nc1cccc(Nc2ncc(Cl)c(-c3cccc(-c4ccccc4)c3)n2)c1)c1ccccc1` [Compound 12, N-(3-((4-([1,1′-biphenyl]-3-yl)-5-chloropyrimidin-2-yl)amino)phenyl)benzamide], the Kd was 140 nM at PIP4K2C and over 10000 nM on PIP4K2B.

For the molecule `O=C(Nc1cncc(Nc2ncc(Cl)c(-c3cccc(-c4ccccc4)c3)n2)c1)c1ccccc1` [Compound 13, N-(5-((4-([1,1′-biphenyl]-3-yl)-5-chloropyrimidin-2-yl)amino)pyridin-3-yl)benzamide], the Kd was 21 nM at PIP4K2C and over 10000 nM on PIP4K2B.

With `O=C(Nc1cncc(Nc2ncc(Cl)c(-c3cccc(-c4cccnc4)c3)n2)c1)c1ccccc1` [Compound 14], the values for the Kd at PIP4K2C and at PIP4K2B were 38 nM and over 10000 nM, respectively.

Regarding `O=C1CC[C@H]2COc3ncc(Nc4ncc(Cl)c(-c5cccc(-c6ccccc6)c5)n4)cc3N12` [Compound 15, (S)-2-((4-([1,1′-biphenyl]-3-yl)-5-chloropyrimidin-2-yl)amino)-6,6a,7,8-tetrahydro-9H-pyrido[2,3-b]pyrrolo[1,2-d][1,4]oxazin-9-one], the Kd at PIP4K2C was 0.45 nM; at PIP4K2B, over 10000 nM.

`O=C(COc1cccc2c1C(=O)N(C1CCC(=O)NC1=O)C2=O)NCCOCCOCCNS(=O)(=O)c1ccc(Nc2ncc(Cl)c(-c3cccc(-c4ccccc4)c3)n2)cc1` (centres unmarked) [Compound 36, N-(2-(2-(2-((4-((4-([1,1′-biphenyl]-3-yl)-5-chloro-1|4-pyrimidin-2-yl)amino)phenyl)sulfonamido)ethoxy)ethoxy)ethyl)-2-((2-(2,6-dioxopiperidin-3-yl)-1,3-dioxoisoindolin-4-yl)oxy)acetamide] yielded a Kd at PIP4K2C of 460 nM.

`CC(=O)N[C@H](C(=O)N1C[C@H](O)C[C@H]1C(=O)N[C@@H](C)c1ccc(-c2scnc2C)cc1OCCCCCNC(=O)CCC(=O)Nc1cncc(Nc2ncc(Cl)c(-c3cccc(-c4ccccc4)c3)n2)c1)C(C)(C)C` [Compound 53, N1-(5-((4-([1,1′-biphenyl]-3-yl)-5-chloropyrimidin-2-yl)amino)pyridin-3-yl)-N4-(5-(2-((S)-1-((2S,4R)-1-((S)-2-acetamido-3,3-dimethylbutanoyl)-4-hydroxypyrrolidine-2-carboxamido)ethyl)-5-(4-methylthiazol-5-yl)phenoxy)pentyl)succinimide] gave a Kd on PIP4K2C of 110 nM.

For `Cc1ncsc1-c1ccc(CNC(=O)[C@@H]2C[C@@H](O)CN2C(=O)[C@@H](NC(=O)C2(F)CC2)C(C)(C)C)c(OCCCCCCC(=O)N2CCC3(CC2)CCN(c2cncc(Nc4ncc(Cl)c(-c5cccc(-c6ccccc6)c5)n4)c2)C3=O)c1` [Compound 56, (2S,4R)—N-(2-((7-(2-(5-((4-([1,1′-biphenyl]-3-yl)-5-chloropyrimidin-2-yl)amino)pyridin-3-yl)-1-oxo-2,8-diazaspiro[4,5]decan-8-yl)-7-oxoheptyl)oxy)-4-(4-methylthiazol-5-yl)benzyl)-1-((S)-2(1-fluorocyclopropane-1-carboxamido)-3,3-dimethylbutanoyl)-4-hydroxypyrrolidine-2-carboxamide], the Kd on PIP4K2C was 620 nM; at PIP4K2B, over 10000 nM.

As to `Cc1ncsc1-c1ccc([C@H](C)NC(=O)[C@@H]2C[C@@H](O)CN2C(=O)[C@@H](NC(=O)CCCCCC(=O)N2CCC3(CC2)CCN(c2cncc(Nc4ncc(Cl)c(-c5cccc(-c6ccccc6)c5)n4)c2)C3=O)C(C)(C)C)cc1` [Compound 57], the Kd on PIP4K2C is 42 nM; at PIP4K2B, over 10000 nM.
